# Entries after “also recorded” stand apart in the source; their conditions may differ. Where two headings read alike, the source gives them in different places.
# What was measured:
# [1] = Concentration of CKLP1 and levcromakalim in ocular and systemic tissues of hound dogs; type: in vivo, hound dog; conditions: for concentration at 23 h: hound, dog
# Description: After blood collection for pharmacokinetic studies, bilateral ocular treatment with CKLP1 (10 mM) continued in the hound dogs for 4-5 additional days.
# For ocular tissue collection, eyes were enucleated and aqueous humor, vitreous humor, trabecular meshwork, optic nerve, ciliary body, iris, retina and cornea were isolated and stored at −80° C. While collecting tissues during necropsy, portions of heart, kidney, lung, brain, liver and skeletal muscle were immediately frozen for pharmacodynamics analysis, while the remaining tissue samples were immediately fixed in 10% neutral buffered formalin.
# (§1) Immediately prior to analysis, tissues were thawed and their weight was measured. PBS was added at double the tissue volume homogenized in a rotor stator homogenizer for 30 seconds. […] Detection was accomplished using positive electrospray ionization with multiple-reaction monitoring (MRM). […] Data were acquired and analyzed using Waters MassLynx v4.1 software.
# [2] = Plasma pharmacokinetics of CKLP1 and levcromakalim after topical dosing in hound dogs; type: in vivo, hound dog; conditions: for AUC(0-t) / Cmax / Tmax / half-life: plasma
# Description: To assess the pharmacokinetic parameters, hound dogs (n=3) were treated with 50 μL topical ocular administration of 10 mM CKLP1 or vehicle (PBS) (n=2) in both eyes, once daily for eight days. Blood (approximately 3 mL) was collected in heparin blood collection tubes at eight different time points (5 minutes, 15 minutes, 30 minutes, 60 minutes, 2 hours, 4 hours, 8 hours and 24 hours) following treatment on days 1, 4 and 8. Plasma was separated from the blood by centrifugation at 2000 rpm for 5 minutes.
# as §1
# [3] = biological target: T1, human Kir6.2/SUR2B KATP channel (Homo sapiens, UniProt O60706); test: FLIPR membrane potential assay in HEK-Kir6.2/SUR2B cells; type: cell-based
# T1 construct: expressed in transfected cells
# T1 sequence (O60706 1-1549 isoform O60706-2): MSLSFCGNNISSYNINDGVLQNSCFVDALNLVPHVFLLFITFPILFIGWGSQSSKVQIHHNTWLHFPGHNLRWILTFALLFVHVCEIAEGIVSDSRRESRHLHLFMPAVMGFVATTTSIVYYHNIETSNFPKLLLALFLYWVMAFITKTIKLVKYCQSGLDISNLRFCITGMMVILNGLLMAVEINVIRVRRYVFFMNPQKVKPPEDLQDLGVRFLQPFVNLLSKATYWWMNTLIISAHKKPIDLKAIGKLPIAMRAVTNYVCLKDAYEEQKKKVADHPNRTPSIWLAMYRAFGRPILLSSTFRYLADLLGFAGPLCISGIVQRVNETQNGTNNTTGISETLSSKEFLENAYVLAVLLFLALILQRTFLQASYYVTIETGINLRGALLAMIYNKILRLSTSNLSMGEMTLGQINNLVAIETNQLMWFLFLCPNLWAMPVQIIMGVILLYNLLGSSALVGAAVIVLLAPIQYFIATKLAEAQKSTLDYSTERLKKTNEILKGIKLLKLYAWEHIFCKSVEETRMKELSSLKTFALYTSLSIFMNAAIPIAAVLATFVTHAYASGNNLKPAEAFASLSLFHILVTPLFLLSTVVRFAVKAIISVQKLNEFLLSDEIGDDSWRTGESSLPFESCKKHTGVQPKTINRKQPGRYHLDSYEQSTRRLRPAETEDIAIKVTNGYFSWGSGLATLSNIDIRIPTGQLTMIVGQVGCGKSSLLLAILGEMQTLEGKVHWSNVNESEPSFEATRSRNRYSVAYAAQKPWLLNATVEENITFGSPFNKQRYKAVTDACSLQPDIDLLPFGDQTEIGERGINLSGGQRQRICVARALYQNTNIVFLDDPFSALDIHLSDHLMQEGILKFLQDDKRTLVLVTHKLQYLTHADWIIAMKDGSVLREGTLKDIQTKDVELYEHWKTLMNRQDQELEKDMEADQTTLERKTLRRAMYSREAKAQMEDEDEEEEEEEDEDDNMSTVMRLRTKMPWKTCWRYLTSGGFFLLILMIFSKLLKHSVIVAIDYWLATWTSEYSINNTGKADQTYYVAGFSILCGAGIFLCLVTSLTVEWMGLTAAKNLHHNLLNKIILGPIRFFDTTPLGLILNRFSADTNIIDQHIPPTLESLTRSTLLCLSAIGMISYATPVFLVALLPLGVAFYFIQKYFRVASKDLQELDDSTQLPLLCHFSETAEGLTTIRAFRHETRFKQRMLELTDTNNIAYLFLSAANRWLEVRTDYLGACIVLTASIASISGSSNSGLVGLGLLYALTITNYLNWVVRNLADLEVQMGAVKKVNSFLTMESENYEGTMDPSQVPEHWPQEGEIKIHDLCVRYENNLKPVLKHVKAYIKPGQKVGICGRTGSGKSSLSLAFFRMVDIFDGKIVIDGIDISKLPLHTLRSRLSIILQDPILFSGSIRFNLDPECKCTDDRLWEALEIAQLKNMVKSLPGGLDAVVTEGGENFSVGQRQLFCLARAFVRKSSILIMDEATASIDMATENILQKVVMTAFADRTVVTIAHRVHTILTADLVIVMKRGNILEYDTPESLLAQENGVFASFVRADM
# T1 sequence (Q14654 whole entry partner): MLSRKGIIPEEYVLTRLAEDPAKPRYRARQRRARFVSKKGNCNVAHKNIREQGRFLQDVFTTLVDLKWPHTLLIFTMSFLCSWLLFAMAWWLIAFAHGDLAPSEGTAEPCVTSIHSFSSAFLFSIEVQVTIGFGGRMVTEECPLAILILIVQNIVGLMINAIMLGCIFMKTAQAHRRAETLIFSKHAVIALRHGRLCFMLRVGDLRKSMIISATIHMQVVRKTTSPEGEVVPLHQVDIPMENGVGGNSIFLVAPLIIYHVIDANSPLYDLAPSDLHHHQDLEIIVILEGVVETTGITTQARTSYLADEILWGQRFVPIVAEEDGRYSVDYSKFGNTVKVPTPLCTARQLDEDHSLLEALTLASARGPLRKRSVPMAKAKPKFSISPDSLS
# Description: The ability of CKLP1 and the active moiety of CKLP1, leveromakalim, to pharmacologically modulate the function of the human ATP-sensitive potassium channel comprised of Kir6.2 (encoded by the human gene KCNJ11) coupled to the sulfonylurea receptor SUR2B (encoded by the human gene ABCC9) was studied.
# Compounds were dissolved up to 10 mM stock solution in DMSO. Ten-point concentration response curves were generated at 100× concentration in 100% DMSO. Compound source plates were made by serially diluting 10 mM compound stocks in DMSO to generate a progressive semilog dilution schema. Dose response stock plate (10 μL) were then transferred into assay plates containing 90 μL of assay buffer, generating 10× working concentrations. Final assay test concentration ranges of 100 μM to 0.003 μM with a final DMSO concentration of 1.0%.
# Human embryonic kidney (HEK) cells stably expressing human Kir6.2/SUR2B KATP channel subunits were plated onto 96 well, black poly-d-lysine (PDL)-coated microplates and maintained in growth media the day prior to use for experiments. Media was removed from the plates and 90 μL of 1× stock of the membrane potential sensitive fluorescent dye FMP-Blue resuspended in assay buffer (EBSS—in mM: NaCl 145, KCl 2, Glucose 5, CaCl2) 1.8, MgCl2 0.8, HEPES 10, pH 7.4 with NaOH, 290-300 mOSm) was added to the cells. Cells were incubated at room temperature, protected from light, for 45-60 minutes. After the incubation period, cell, test compound and glibenclamide plates were loaded onto the fluorescence plate reader (FLIPR-TETRA™) and the scanning initiated. The FLIPR measured a 10 second baseline and then added 10 μL of 10× the final desired concentration of test agent. Changes in fluorescence were monitored for an additional 5 minutes. After the 5-minute compound incubation, 10 μL of the receptor inhibitor glibenclamide was added to the cell plate (10 uM final glibenclamide concentration). Changes in fluorescence was then monitored for an additional 5 minutes.
# Compound modulation of Kir6.2/SUR2B KATP channel mediated changes in cellular membrane potential was determined as follows. After the administration of compound, FMP fluorescence was monitored for a 5-minute period. The following parameters were recorded and exported from the FLIPR: the average relative fluorescence response (RFU) of 5 images taken at the 5-minute point in the assay with the average background EBSS buffer response subtracted. […] Test agent effect was calculated as % activation using the following formula: […]
# Curve fits were performed in GraphPad Prism graphing software using a 4-parameter, variable slope fit equation.
# [4] = tested on: normotensive hound dogs (IOP); test: Extended-dose (61 days) study of CKLP1 on IOP in hound dogs; type: in vivo, hound dog
# Description: To evaluate the effect of IOP lowering long-term, hound dogs (n=5) were treated with 10 mM CKLP1 in one eye and vehicle (PBS) in the contralateral eye once daily for 61 consecutive days. […] On average, IOP was reduced by 18.9±1.3% (reduction of 3.0±0.5 mmHg; p<0.001) in all five hound dogs over the entire treatment period. Additionally, no significant change in systolic (baseline, 141.0±6.7; treatment, 138.9±9.5; p=0.56) or diastolic (baseline, 80.1±8.9; treatment, 78.1±5.9; p=0.76) blood pressure was observed during the treatment period (FIG. 7B). Hound dogs were also evaluated for eye redness, swelling of the eye or eyelids, unusual discharge from eye and overall food intake.
# For the extended dose study, baseline IOPs were measured three times daily for 5 consecutive days. The average of the three measurements was recorded as the daily IOP and averaged over the 5 days for the final pre-treatment value. Following baseline IOP measurements, dogs (n=5) were treated with 10 mM CKLP1 in one eye, while the contralateral eye received vehicle (PBS). IOP was measured at least three times every week at times corresponding to 1, 4, and 23 hours post treatment. Blood pressure was measured three times each week at the 4 hour post treatment time point.
# [5] = CKLP1, topical 10 mM CKLP1 once daily, Day 1
# [6] = CKLP1, topical 10 mM CKLP1 once daily, Day 4
# [7] = CKLP1, topical 10 mM CKLP1 once daily, Day 8
# [8] = hound, dog, topical or ocular, 10 mM CKLP1, 50 µL in each of both eyes, CKLP1, topical 10 mM CKLP1 once daily, Day 1
# [9] = hound, dog, topical or ocular, 10 mM CKLP1, 50 µL in each of both eyes, CKLP1, topical 10 mM CKLP1 once daily, Day 4
# [10] = hound, dog, topical or ocular, 10 mM CKLP1, 50 µL in each of both eyes, CKLP1, topical 10 mM CKLP1 once daily, Day 8
# [11] = 10 mM CKLP1 once daily, 61 days, vs vehicle eye
compound,measurement,setting,value
CC1(C)Oc2ccc(C#N)cc2[C@@H](N2CCCC2=O)[C@@H]1OP(=O)(O)O [CKLP1],concentration in lung,"[1]; 23 hours after last dose, topical 10 mM CKLP1 12-13 days",undetected
same,concentration at 23 h,"[1]; aqueous humor, 23 hours after last dose, topical 10 mM CKLP1 12-13 days, two animals, read-out: concentration in aqueous humor",10.2 ± 14.4 ng/g
same,concentration at 23 h,"[1]; ciliary body, 23 hours after last dose, topical 10 mM CKLP1 12-13 days, two animals, read-out: concentration in ciliary body",10.3 ± 8.1 ng/g
same,concentration at 23 h,"[1]; cornea, 23 hours after last dose, topical 10 mM CKLP1 12-13 days, two animals, read-out: concentration in cornea",31.3 ± 10.8 ng/g
same,concentration at 23 h,"[1]; heart, 23 hours after last dose, topical 10 mM CKLP1 12-13 days, read-out: concentration in heart",3.7 ± 0.5 ng/g
same,concentration at 23 h,"[1]; iris, 23 hours after last dose, topical 10 mM CKLP1 12-13 days, two animals, read-out: concentration in iris",4.8 ± 1.1 ng/g
same,concentration at 23 h,"[1]; kidney, 23 hours after last dose, topical 10 mM CKLP1 12-13 days, read-out: concentration in kidney",2.7 ± 2.9 ng/g
same,concentration at 23 h,"[1]; optic nerve, 23 hours after last dose, topical 10 mM CKLP1 once daily 12-13 days, two animals, read-out: concentration in optic nerve",63.8 ± 63.1 ng/g
same,concentration at 23 h,"[1]; retina, 23 hours after last dose, topical 10 mM CKLP1 12-13 days, two animals, read-out: concentration in retina",6.2 ± 3.8 ng/g
same,concentration at 23 h,"[1]; trabecular meshwork, 23 hours after last dose, topical 10 mM CKLP1 12-13 days, two animals, read-out: concentration in trabecular meshwork",170 ± 21.6 ng/g
same,concentration at 23 h,"[1]; vitreous humor, 23 hours after last dose, topical 10 mM CKLP1 12-13 days, two animals, read-out: concentration in vitreous humor",24.4 ± 2.4 ng/g
same,concentration in urine,[1]; topical 10 mM CKLP1 12-13 days,88.0 ± 134.9 ng/mL
same,Clast,[2]; [5],2.6 ng/mL
same,Tlast,[2]; [5],480 min
same,Clast,[2]; [6],1.4 ng/mL
same,Tlast,[2]; [6],1440 min
same,Clast,[2]; [7],0.3 ng/mL
same,Tlast,[2]; [7],1450 min
same,AUC(0-t),[2]; [8],72.9 ng·h/mL
same,Cmax,[2]; [8],10.3 ng/mL
same,Tmax,"[2]; hound, dog, topical or ocular, 10 mM CKLP1, 50 µL in each of both eyes, CKLP1, topical 10 mM CKLP1 once daily, Day 1, read-out: Tmax (converted)",1 h
same,AUC(0-t),[2]; [9],103 ng·h/mL
same,Cmax,[2]; [9],12.2 ng/mL
same,Tmax,"[2]; hound, dog, topical or ocular, 10 mM CKLP1, 50 µL in each of both eyes, CKLP1, topical 10 mM CKLP1 once daily, Day 4, read-out: Tmax (converted)",2 h
same,AUC(0-t),[2]; [10],86.7 ng·h/mL
same,Cmax,[2]; [10],8.9 ng/mL
same,Tmax,"[2]; hound, dog, topical or ocular, 10 mM CKLP1, 50 µL in each of both eyes, CKLP1, topical 10 mM CKLP1 once daily, Day 8, read-out: Tmax (converted)",1 h
same,half-life,"[2]; hound, dog, topical or ocular, 10 mM, CKLP1, topical 10 mM CKLP1 once daily, Day 1",3.01 h
same,half-life,"[2]; hound, dog, topical or ocular, 10 mM, CKLP1, topical 10 mM CKLP1 once daily, Day 4",7.53 h
same,half-life,"[2]; hound, dog, topical or ocular, 10 mM, CKLP1, topical 10 mM CKLP1 once daily, Day 8",4.23 h
same,Tmax,"[2]; hound, dog, topical or ocular, 10 mM, topical 10 mM CKLP1, read-out: time of maximum concentration (Tmax) of CKLP1",≤ 1 h
same,AUC,"[2]; hound, dog, topical or ocular, CKLP1 in plasma, topical 10 mM CKLP1",87.7 ng·h/mL
same,AUC of CKLP1 relative to levcromakalim,[2]; topical 10 mM CKLP1,22.4 fold
same,Maximum concentration of CKLP1 in plasma,"[2]; topical 10 mM CKLP1, mean of days 1, 4, 8",10.5 ± 1.7 ng/mL
same,"conversion of CKLP1 to levcromakalim, estimate from blood concentrations",[2]; topical CKLP1,10%
same,EC50,"[3]; ability to modulate KATP channel, HEK-Kir6.2/SUR2B cells, normalized to 100 uM pinacidil, read-out: EC50 (μM) (mean ± SEM)",> 100 µM
same,Emax at 100 µM,"[3]; read-out: maximal response, % activation",9.4%
same,hyperpolarization / activation of Kir6.2/SUR2B KATP channels,[3]; up to 100 μM,did not result in any significant hyperpolarization; also recorded: failed to produce any significant activation
same,average IOP in treated eye,"[4]; 10 mM CKLP1 once daily, 61 consecutive days",12.9±2.0 mmHg
same,"eye redness, swelling of the eye or eyelids, unusual discharge from eye, food intake","[4]; 10 mM CKLP1 once daily, 61 days",No notable findings
same,IOP reduced by,[4]; [11],18.9±1.3%
same,IOP reduction,[4]; [11],3.0±0.5 mmHg
same,return of IOP to baseline after CKLP1 administration,"[4]; dogs (FIG. 7A), same effect in African green monkeys (FIG. 8A)",greater than 24 hours
same,IOP lowered by (summary),[4]; hound dogs,approximately 19%

# Source: patent US20220387457A1 (Qlaris Bio, Inc., priority 2020, published 2022)
